# Laboratory results published in patent US11820773B2, “Tricyclic compounds” (ALIGOS THERAPEUTICS, INC., priority 2020, dated 2023).
# System: HBV
# Assay: HBV-DNA antiviral assay using HepG2.117 cells (intracellular HBV DNA by qPCR)
# Assay type: cell-based, genotype D HBV
# Conditions: Hepatitis B virus, 72 h, HBV DNA inhibition, 3 days incubation, 2% DMSO
# Outline: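 HepG2.117 cells (stable genotype D HBV, Tet-off) seeded without doxycycline, treated next day with 9-point 4-fold dilutions in 2% DMSO for 3 days at 37° C. Intracellular HBV DNA quantified by qPCR against a standard curve; viability by CellTiter-Glo ATP. EC50, EC90, CC50 from variable-slope dose-response fits versus DMSO control.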
row,SMILES,EC50 [nM]
1,"Cc1nn[nH]c1-c1ccc(-n2c(=O)c3c(n4ncc(Cc5ccccc5)c24)CN(C(=O)c2ccc(Br)c(C(F)(F)F)c2)[C@@H](C)C3)cc1 (stereo in doubt) [Compound 80b, rac-(11S)-5-benzyl-12-[4-bromo-3-(trifluoromethyl)benzoyl]-11-methyl-7-[4-(4-methyl-1H-triazol-5-yl)phenyl]-2,3,7,12 tetrazatricyclo[7.4.0.0^2,6]trideca-1(9),3,5-trien-8-one]",50 to 500
2,"CNC(=O)c1ccc(-n2c(=O)c3c(n4ncc(CC5CC5)c24)CN(C(=O)c2ccc(Br)c(C(F)(F)F)c2)CC3)cc1 [Compound 24, 4-[12-[4-bromo-3-(trifluoromethyl)benzoyl]-5-(cyclopropylmethyl)-8-oxo-2,3,7,12-tetrazatricyclo[7.4.0.0^2,6]trideca-1(9),3,5-trien-7-yl]-N-methyl-benzamide]",< 50
3,"C[C@@H]1Cc2c(n3ncc(CC4CC4)c3n(-c3ccc(-c4nc(=O)on4C)cc3)c2=O)CN1C(=O)c1ccc(Br)c(C(F)(F)F)c1 (stereo in doubt) [Compound 93a, 2-methyl-3-[4-[rac-(11R)-12-[4-bromo-3-(trifluoromethyl)benzoyl]-5-(cyclopropylmethyl)-11-methyl-8-oxo-2,3,7,12-tetrazatricyclo[7.4.0.0^2,6]trideca-1(9),3,5-trien-7-yl]phenyl]-1,2,4-oxadiazol-5-one]",< 50
4,"CC(C)Cc1cnn2c3c(c(=O)n(-c4ccc5c(c4)nnn5CCO)c12)C[C@H](C)N(C(=O)c1ccc(Br)c(C(F)(F)F)c1)C3 (stereo in doubt) [Compound 108b, rac-(11S)-12-[4-bromo-3-(trifluoromethyl)benzoyl]-7-[1-(2-hydroxyethyl)benzotriazol-5-yl]-5-isobutyl-11-methyl-2,3,7,12-tetrazatricyclo[7.4.0.0^2,6]trideca-1(9),3,5-trien-8-one]",50 to 500
5,"Cc1nn[nH]c1-c1ccc(-n2c(=O)c3c(n4ncc(CC(C)C)c24)CN(C(=O)c2ccc(Br)c(C(F)(F)F)c2)[C@H](C)C3)cc1 (stereo in doubt) [Compound 62a, rac-(11R)-12-[4-bromo-3-(trifluoromethyl)benzoyl]-5-isobutyl-11-methyl-7-[4-(4-methyl-1H-triazol-5-yl)phenyl]-2,3,7,12-tetrazatricyclo[7.4.0.0^2,6]trideca-1(9),3,5-trien-8-one]",< 50
6,"C[C@@H]1Cc2c(n3ncc(Cc4ccccc4)c3n(-c3ccc(-c4cnnn4C)cc3)c2=O)CN1C(=O)c1ccc(Br)c(C(F)(F)F)c1 (stereo in doubt) [Compound 105a, rac-(11R)-5-benzyl-12-[4-bromo-3-(trifluoromethyl)benzoyl]-11-methyl-7-[4-(3-methyltriazol-4-yl)phenyl]-2,3,7,12-tetrazatricyclo[7.4.0.0^2,6]trideca-1(9),3,5-trien-8-one]",< 50
7,"C[C@@H]1Cc2c(n3ncc(Cc4ccccc4)c3n(-c3ccc4c(c3)nnn4C)c2=O)CN1C(=O)c1ccc(Br)c(C(F)(F)F)c1 (stereo in doubt) [Compound 72a, rac-(11R)-5-benzyl-12-[4-bromo-3-(trifluoromethyl)benzoyl]-11-methyl-7-(1-methylbenzotriazol-5-yl)-2,3,7,12-tetrazatricyclo[7.4.0.0^2,6]trideca-1(9),3,5-trien-8-one]",< 50
8,"CNc1n[nH]c2cc(-n3c(=O)c4c(n5ncc(Cc6ccccc6)c35)CN(C(=O)c3ccc(Br)c(C(F)(F)F)c3)[C@H](C)C4)ccc12 (stereo in doubt) [Compound 43a, rac-(11R)-5-benzyl-12-[4-bromo-3-(trifluoromethyl)benzoyl]-11-methyl-7-[3-(methylamino)-1H-indazol-6-yl]-2,3,7,12-tetrazatricyclo[7.4.0.0^2,6]trideca-1(9),3,5-trien-8-one]",< 50
9,"Cc1nnc(-c2ccc(-n3c(=O)c4c(n5ncc(Cc6ccccc6)c35)CN(C(=O)c3ccc(Br)c(C(F)(F)F)c3)[C@H](C)C4)cc2)[nH]1 (stereo in doubt) [Compound 47a, rac-(11R)-5-benzyl-12-[4-bromo-3-(trifluoromethyl)benzoyl]-11-methyl-7-[4-(5-methyl-4H-1,2,4-triazol-3-yl)phenyl]-2,3,7,12-tetrazatricyclo[7.4.0.0^2,6]trideca-1(9),3,5-trien-8-one]",< 50
10,"C[C@H]1Cc2c(n3ncc(Cc4ccccc4)c3n(-c3ccc(-c4nnn[nH]4)cc3)c2=O)CN1C(=O)c1ccc(Br)c(C(F)(F)F)c1 (stereo in doubt) [Compound 71b, rac-(11S)-5-benzyl-12-[4-bromo-3-(trifluoromethyl)benzoyl]-11-methyl-7-[4-(1H-tetrazol-5-yl)phenyl]-2,3,7,12-tetrazatricyclo[7.4.0.0^2,6]trideca-1(9),3,5-trien-8-one]",> 5000
11,"C[C@H]1Cc2c(n3ncc(Cc4ccccc4)c3n(-c3ccc(-c4nc(=O)on4C)cc3)c2=O)CN1C(=O)c1ccc(Br)c(C(F)(F)F)c1 (stereo in doubt) [Compound 44b, 2-methyl-3-[4-[rac-(11S)-5-benzyl-12-[4-bromo-3-(trifluoromethyl)benzoyl]-11-methyl-8-oxo-2,3,7,12-tetrazatricyclo[7.4.0.0^2,6]trideca-1(9),3,5-trien-7-yl]phenyl]-1,2,4-oxadiazol-5-one]",< 50
12,"C[C@@H]1Cc2c(n3ncc(Cc4ccccc4)c3n(-c3ccc(-n4nnnc4C(F)(F)F)cc3)c2=O)CN1C(=O)c1ccc(Br)c(C(F)(F)F)c1 [Compound 87, 5-benzyl-12-[4-bromo-3-(trifluoromethyl)benzoyl]-11-methyl-7-[4-[5-(trifluoromethyl)tetrazol-1-yl]phenyl]-2,3,7,12-tetrazatricyclo[7.4.0.0^2,6]trideca-1(9),3,5-trien-8-one]",50 to 500
13,"C[C@@H]1Cc2c(n3ncc(Cc4ccccc4)c3n(-c3ccc(-c4n[nH]c(=O)n4C)cc3)c2=O)CN1C(=O)c1ccc(Br)c(C(F)(F)F)c1 (stereo in doubt) [Compound 58a, rac-(11R)-5-benzyl-12-[4-bromo-3-(trifluoromethyl)benzoyl]-11-methyl-7-[4-(4-methyl-5-oxo-1H-1,2,4-triazol-3-yl)phenyl]-2,3,7,12-tetrazatricyclo[7.4.0.0^2,6]trideca-1(9),3,5-trien-8-one]",< 50
14,"Cc1cnn(-c2ccc(-n3c(=O)c4c(n5ncc(CC(C)C)c35)CN(C(=O)c3ccc(Br)c(C(F)(F)F)c3)[C@@H](C)C4)cc2)n1 (stereo in doubt) [Compound 99b, rac-(11S)-12-[4-bromo-3-(trifluoromethyl)benzoyl]-5-isobutyl-11-methyl-7-[4-(4-methyltriazol-2-yl)phenyl]-2,3,7,12-tetrazatricyclo[7.4.0.0^2,6]trideca-1(9),3,5-trien-8-one]",500 to 5000
15,"CC[C@H]1Cc2c(n3ncc(Cc4ccccc4)c3n(-c3ccc4c(NC)n[nH]c4c3)c2=O)CN1C(=O)c1ccc(Br)c(C(F)(F)F)c1 (stereo in doubt) [Compound 84b, rac-(11S)-5-benzyl-12-[4-bromo-3-(trifluoromethyl)benzoyl]-11-ethyl-7-[3-(methylamino)-1H-indazol-6-yl]-2,3,7,12-tetrazatricyclo[7.4.0.0^2,6]trideca-1(9),3,5-trien-8-one]",< 50
